Measurements taken from patent US11464770B2, “Anticancer pharmaceutical composition” (NATIONAL CANCER CENTER, priority 2016, dated 2022).
pIC50: −log10 of the molar value. Like-named read-outs stand apart in the source and are kept apart here.

Assays:
[1] = system: lung cancer cell lines (e.g. NCI-H23, NCI-H1229); experiment: Cell based assay, cell viability (CellTiter-Glo), lung cancer cell lines; conditions: Homo sapiens, 72 hours treatment, CellTiter-Glo
Summary of the method: (§1)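 Trypsin-EDTA-detached lines seeded; 24 h later compound added (final 0–2 μM); 72 h exposure; ATP luminescence viability readout.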

[2] = system: prostate cancer cell lines (e.g. DU145/TXR); experiment: Cell based assay, cell viability (CellTiter-Glo), prostate cancer cell lines; conditions: Homo sapiens, 72 hours treatment, final concentration 0 to 2 μM
Summary of the method: as §1

renal cancer cell lines = experiment: Cell based assay, cell viability (CellTiter-Glo), renal cancer cell lines; conditions: Homo sapiens; ACHN cells
Summary of the method: as §1

[3] = A549 cells, read-out: IC50, lung cancer cell line A549
[4] = DMS 114 cells, read-out: IC50, lung cancer cell line DMS 114
[5] = NCI-H23 cells, read-out: IC50, lung cancer cell line NCI-H23
[6] = NCI-H460 cells, read-out: IC50, lung cancer cell line NCI-H460
[7] = NCI-H522 cells, read-out: IC50, lung cancer cell line NCI-H522
[8] = NCI-H1299 cells, read-out: IC50, lung cancer cell line NCI-H1299
[9] = NCI-H1437 cells, read-out: IC50, lung cancer cell line NCI-H1437
[10] = CWR22 cells, read-out: IC50, prostate cancer cell line CWR22
[11] = DU-145, DU145/TXR cells, read-out: IC50, prostate cancer cell line DU145/TXR
[12] = DU-145, DU145 cells, read-out: IC50, prostate cancer cell line DU145
[13] = LNcap cells, read-out: IC50, prostate cancer cell line LNcap
[14] = PC-3 cells, read-out: IC50, prostate cancer cell line PC-3

SMILES	pIC50 [1, 3]	pIC50 [1, 4]	pIC50 ([1]; MRC-5 cells, read-out: IC50)	pIC50 [1, 5]	pIC50 [1, 6]	pIC50 [1, 7]	pIC50 [1, 8]	pIC50 [1, 9]	pIC50 [2, 10]	pIC50 [2, 11]	pIC50 [2, 12]	pIC50 [2, 13]	pIC50 [2, 14]	pIC50 (renal cancer cell lines)
CC(=O)c1c([S+]([O-])Cc2ccc(C(C)(C)C)cc2)[nH]c2c(Br)ccc(Cl)c2c1=O (stereo not shown) [Compound 60, 3-acetyl-8-bromo-2-((4-(tert-butyl)benzyl)sulfinyl)-5-chloroquinolin-4(1H)-one]	< 5.70	< 5.70	< 5.70	5.86	< 5.70	< 5.70	< 5.70	< 5.00	< 5.70	5.90	< 5.70	< 5.70	5.74	< 5.70
CC(=O)c1c([S+]([O-])Cc2cccnc2)[nH]c2c(Br)ccc(Cl)c2c1=O (stereo not shown) [Compound 84, 3-acetyl-8-bromo-5-chloro-2-((pyridin-3-ylmethyl)sulfinyl)quinolin-4(1H)-one]	< 5.70	< 5.70	5.89	6.07	5.83	5.87	5.98	< 5.00	5.85	5.91	5.86	< 5.70	< 5.70	5.86
CC(=O)c1c([S+]([O-])Cc2ccc([N+](=O)[O-])cc2)[nH]c2c(Br)ccc(Cl)c2c1=O (stereo not shown) [Compound 33, 3-acetyl-8-bromo-5-chloro-2-((4-nitrobenzyl)sulfinyl)quinolin-4(1H)-one]	< 5.70	< 5.70	6.09	6.07	5.75	< 5.70	5.86	< 5.00	5.87	5.87	5.79	5.74	5.80	< 5.70
COc1cc(C[S+]([O-])c2[nH]c3c(Br)ccc(Cl)c3c(=O)c2C(C)=O)cc(OC)c1 (stereo not shown) [Compound 59, 3-acetyl-8-bromo-5-chloro-2-((3,5-dimethoxybenzyl)sulfinyl)quinolin-4(1H)-one]	< 5.70	< 5.70	5.99	6.04	5.74	< 5.70	5.84	< 5.00	5.81		5.83	< 5.70	5.79	< 5.70
CC(=O)c1c([S+]([O-])Cc2ccc(F)c(Cl)c2)[nH]c2c(Br)ccc(Cl)c2c1=O (stereo not shown) [Compound 31, 3-acetyl-8-bromo-5-chloro-2-((3-chloro-4-fluorobenzyl)sulfinyl)quinolin-4(1H)-one]	5.76	< 5.70	< 5.70	6.09	5.85	< 5.70	5.91	< 5.00	5.80	6.03	5.84	5.79	5.85	< 5.70
CC(=O)c1c([S+]([O-])Cc2c(F)cccc2Cl)[nH]c2c(Br)ccc(Cl)c2c1=O (stereo not shown) [Compound 74, 3-acetyl-8-bromo-5-chloro-2-((2-chloro-6-fluorobenzyl)sulfinyl)quinolin-4(1H)-one]	< 5.70	< 5.70	< 5.70	5.97	< 5.70	< 5.70	5.85	< 5.00	5.76	5.84	< 5.70	5.75	5.83	< 5.70
CC(=O)c1c([S+]([O-])Cc2ccc(C(F)(F)F)cc2)[nH]c2c(Br)ccc(Cl)c2c1=O (stereo not shown) [Compound 70, 3-acetyl-8-bromo-5-chloro-2-((4-(trifluoromethyl)benzyl)sulfinyl)quinolin-4(1H)-one]	5.70	< 5.70	6.00	5.99	5.79	< 5.70	5.83	< 5.00	5.72	5.92	5.96	< 5.70	5.90	< 5.70
CC(=O)c1c([S+]([O-])Cc2ccc(OC(F)(F)F)cc2)[nH]c2c(Br)ccc(Cl)c2c1=O (stereo not shown) [Compound 71, 3-acetyl-8-bromo-5-chloro-2-((4-(trifluoromethoxy)benzyl)sulfinyl)quinolin-4(1H)-one]	5.75	< 5.70	< 5.70	5.84	< 5.70	< 5.70	5.79	< 5.00	< 5.70	5.91	5.76	< 5.70	5.77	< 5.70
CC(=O)c1c([S+]([O-])Cc2ccc(F)cc2F)[nH]c2c(Br)ccc(Cl)c2c1=O (stereo not shown) [Compound 29, 3-acetyl-8-bromo-5-chloro-2-((2,4-difluorobenzyl)sulfinyl)quinolin-4(1H)-one]	< 5.70	< 5.70	< 5.70	6.04	5.75	< 5.70	5.85	< 5.00	5.75		5.76	5.81	5.84	< 5.70
